Experimental findings from patent US20090082337A1, “Compositions Comprising Quinolone and Methods for Treating or Controlling Infections” (priority 2007, published 2009) are described below.

Converted amounts (≈) assume the structure as drawn.

For one data set, the system named is Propionibacterium acnes. As to the kind of experiment: In vitro anti-bacterial activity (MIC90), ophthalmologic clinical bacteria isolates. In kind it is cell-based. To be noted: Cutibacterium acnes, Gram-positive.
In a further data set the test system is Moraxella species. The data set is described as above. The class given is cell-based. The settings on record: Gram-negative.
The subject of data set [1] is Staphylococcus aureus (No. 420). Description: In vitro anti-bacterial activity (MIC90), methicillin-resistant Staphylococcus aureus isolates. The class given is cell-based. To be noted: methicillin-resistant Staphylococcus aureus (No. 420). How it is done: (§1) In yet another aspect, said another quinolone has a MIC90 value for a Gram-negative bacterium that is lower than that of the fluoroquinolone having Formula I, II, III, IV, V, VI, VII, or VIII for the same bacterium, said fluoroquinolone being included in the composition. MIC90 is the minimum concentration of the active compound required to inhibit ninety percent of the growth of a specified pathogen, in μg/ml.
(§2) Anti-bacterial activity of the compound having Formula IV was tested against some methicillin-resistant Staphylococcus aureus bacteria strains and compared to the anti-bacterial activity of three commercially available antibiotics (nadifloxacin, ofloxacin, and sparfloxacin).

For data set [2], the system named is Staphylococcus aureus (No. 415). Described as above. The class given is cell-based. To be noted: methicillin-resistant Staphylococcus aureus (No. 415). How it is done: as §1, §2
Data set [3] relates to Staphylococcus aureus (ATCC 33591). The description is as above. To be noted: ATCC33591; methicillin-resistant Staphylococcus aureus (ATCC 33591). In kind it is cell-based. How it is done: as §1, §2
The subject of data set [4] is Staphylococcus aureus (No. 395). The data set is described as above. The class given is cell-based. The settings on record: methicillin-resistant Staphylococcus aureus (No. 395). How it is done:
as §1, §2

The subject of data set [5] is Staphylococcus aureus (No. 421). Described as above. In kind it is cell-based. To be noted: methicillin-resistant Staphylococcus aureus (No. 421). How it is done:
as §1, §2

Data set [6] relates to Staphylococcus aureus (ATCC 33593). Described as above. The class given is cell-based. To be noted: ATCC33593; methicillin-resistant Staphylococcus aureus (ATCC 33593). How it is done:
as §1, §2

The test system of data set [7] is Staphylococcus aureus (ATCC 33592). The data set is described as above. In kind it is cell-based. The settings on record: ATCC33592; methicillin-resistant Staphylococcus aureus (ATCC 33592). How it is done: as §1, §2
The subject of data set [8] is Staphylococcus aureus (No. 419). Described as above. In kind it is cell-based. The settings on record: methicillin-resistant Staphylococcus aureus (No. 419). How it is done:
as §1, §2

Data set [9] deals with Salmonella typhimurium (TD). As to the kind of experiment: In vitro anti-bacterial activity (MIC90), Gram-negative bacteria. The settings on record: Salmonella enterica, Gram-negative reference strain. The class given is cell-based. How it is done: Anti-bacterial activity of the compound having Formula IV was tested against several Gram-negative reference bacteria strains and compared to the anti-bacterial activity of three commercially available antibiotics (nadifloxacin, ofloxacin, and sparfloxacin).

For data set [10], the system named is Gentamycin-resistant Pseudomonas aeruginosa. As to the kind of experiment: In vitro anti-bacterial activity (MIC90), ophthalmologic clinical bacteria isolates. To be noted: antibiotic-resistant organisms. The class given is cell-based.
The next data set concerns Streptococcus pneumoniae. Described as above. To be noted: Gram-positive. In kind it is cell-based.
A further data set deals with Haemophilus influenzae. Described as above. In kind it is cell-based. The settings on record: Gram-negative.
The subject of data set [11] is P. aeruginosa (ATCC 27853). As to the kind of experiment: MICs of compound having Formula IV and ciprofloxacin alone and in combination. The class given is cell-based. To be noted: Pseudomonas aeruginosa, ATCC27853, alone, read-out: MIC, drug alone. How it is done: (§3) Compositions having various combinations of concentrations of compound having Formula IV and cirprofloxacin were tested systematically against S. aureus, P. aeruginosa, and E. coli.

A further data set concerns E. coli (ATCC 25922). The description is as above. The settings on record: Escherichia coli, ATCC25922, alone, read-out: MIC, drug alone. In kind it is cell-based. How it is done: as §3
The test system of another data set is S. aureus (ATCC 29213). The description is as above. The class given is cell-based. To be noted: Staphylococcus aureus, ATCC29213, alone, read-out: MIC, drug alone. How it is done: as §3
Data set [12] deals with Coagulase-negative Staphylococcus. Description: In vitro anti-bacterial activity (MIC90), ophthalmologic clinical bacteria isolates. The class given is cell-based. The settings on record: Gram-positive.
In a further data set the test system is Staphylococcus aureus. Described as above. In kind it is cell-based. To be noted: Gram-positive.
Data set [13] can be described thus: Stability of the compound having Formula IV in solution. In kind it is physicochemical. The settings on record: for remaining amount of the compound in solution: initial concentration 100 μg/ml. The text has this: The stability of the compound having Formula IV in solution is shown in Table 7, as the remaining amount (expressed as the percentage of the initial amount) of the compound after selected times. The compound is stable in the pH range of most interest for the present invention.

Data set [14] has as its system Penicillin-resistant Streptococcus pneumoniae. Description: In vitro anti-bacterial activity (MIC90), ophthalmologic clinical bacteria isolates. In kind it is cell-based. To be noted: antibiotic-resistant organisms.
In the next data set the test system is Corynebacterium species. The description is as above. The class given is cell-based. The settings on record: Gram-positive. The text has this:
As disclosed above, most of these bacteria strains are also relevant to infections of the ear and upper respiratory tract.

Data set [15] concerns Gentamycin-resistant Staphylococcus aureus. Described as above. The class given is cell-based. The settings on record: antibiotic-resistant organisms.
In data set [16] the test system is Ofloxacin-resistant Staphylococcus aureus. The data set is described as above. In kind it is cell-based. To be noted: antibiotic-resistant organisms.
In the next data set the test system is Pseudomonas aeruginosa. Described as above. The class given is cell-based. The settings on record: Gram-negative.

For `N[C@@H]1CCCCN(c2c(F)cc3c(=O)c(C(=O)O)cn(C4CC4)c3c2Cl)C1` [Compound Having Formula IV], the MIC90 in the data set with Propionibacterium acnes was 0.25 µg/mL; in the data set with Moraxella species, 0.13 µg/mL; in data set [1], 0.1 µg/mL; in data set [2] it was 0.05 µg/mL; in [3], 0.012 µg/mL; in [4], 0.006 µg/mL. In addition, the MIC90 turned out to be 0.2 µg/mL in data set [5]; 0.012 µg/mL in [6]; 0.05 µg/mL in data set [7]; 0.1 µg/mL in [8]; 0.05 µg/mL in data set [9]; 32 µg/mL in data set [10]. Moreover, the MIC90 with Streptococcus pneumoniae was 0.13 µg/mL; against Haemophilus influenzae, at most 0.06 µg/mL; in [12] it was 0.5 µg/mL; against Staphylococcus aureus, 1 µg/mL; in data set [14] it was 0.13 µg/mL; in the data set on Corynebacterium species it was 2 µg/mL. For the same compound, the results for the MIC90 (in [15]; in data set [16]; with Pseudomonas aeruginosa) were 4 µg/mL, 8 µg/mL and 4 µg/mL, respectively. Moreover, the MIC in [11] is 4 µg/mL; in the data set with E. coli (ATCC 25922) it was 0.12 µg/mL; in the data set with S. aureus (ATCC 29213), 0.03 µg/mL. Moreover, the “remaining amount of the compound in solution” value (from here on “remaining amount”) is listed as 100 percentage of the initial amount in data set [13] (pH 3.5, 0 week); 99.0 percentage of the initial amount in data set [13] (pH 3.5, 2 weeks); 98.8 percentage of the initial amount in data set [13] (pH 3.5, 4 weeks); 100 percentage of the initial amount in data set [13] (pH 4.0, 0 week); 98.5 percentage of the initial amount in data set [13] (pH 4.0, 2 weeks); 98.4 percentage of the initial amount in data set [13] (pH 4.0, 4 weeks). The “remaining amount” value in data set [13] (pH 4.5, 0 week) was 100 percentage of the initial amount; in data set [13] (pH 4.5, 2 weeks), 98.4 percentage of the initial amount; in [13] (pH 4.5, 4 weeks), 98.4 percentage of the initial amount; in data set [13] (pH 5.0, 0 week) it was 100 percentage of the initial amount; in data set [13] (pH 5.0, 2 weeks), 98.2 percentage of the initial amount; in [13] (pH 5.0, 4 weeks) it was 98.8 percentage of the initial amount. The “remaining amount” value in data set [13] (pH 5.5, 0 week) is given as 100 percentage of the initial amount; in [13] (pH 5.5, 2 weeks), 96.8 percentage of the initial amount; in data set [13] (pH 5.5, 4 weeks), 96.8 percentage of the initial amount; in data set [13] (pH 6.0, 0 week), 100 percentage of the initial amount; in data set [13] (pH 6.0, 2 weeks), 96.3 percentage of the initial amount; in [13] (pH 6.0, 4 weeks), 98.0 percentage of the initial amount. Further, the “remaining amount” value is 100 percentage of the initial amount in [13] (pH 6.5, 0 week); 95.3 percentage of the initial amount in data set [13] (pH 6.5, 2 weeks); 95.6 percentage of the initial amount in data set [13] (pH 6.5, 4 weeks). The “stability in solution (in words)” value in data set [13] (pH range of most interest for the present invention) is on record as “stable”.

`CC1CCc2c(N3CCC(O)CC3)c(F)cc3c(=O)c(C(=O)O)cn1c23` (stereo not shown) [Nadifloxacin, nadifloxacin]: the MIC90 in data set [1] came out at 0.78 µg/mL (≈ 2.16 µM); in data set [2] it was 0.1 µg/mL (≈ 0.277 µM); in [3] it was 0.006 µg/mL (≈ 0.0166 µM); in [4], 0.024 µg/mL (≈ 0.0666 µM); in [5] it was 0.78 µg/mL (≈ 2.16 µM); in data set [6], 0.024 µg/mL (≈ 0.0666 µM). The MIC90 in data set [7] stood at 0.05 µg/mL (≈ 0.139 µM); in [8] it was 0.39 µg/mL (≈ 1.08 µM); in [9] it was 0.2 µg/mL (≈ 0.555 µM).

With `CC1COc2c(N3CCN(C)CC3)c(F)cc3c(=O)c(C(=O)O)cn1c23` (stereo not shown) [Ofloxacin, ofloxacin], the MIC90 against Propionibacterium acnes was determined as 1 µg/mL (≈ 2.77 µM); with Moraxella species, 0.13 µg/mL (≈ 0.36 µM); in data set [1] it was 1.56 µg/mL (≈ 4.32 µM); in data set [2], 0.78 µg/mL (≈ 2.16 µM); in [3], 0.05 µg/mL (≈ 0.138 µM); in data set [4] it was 0.2 µg/mL (≈ 0.553 µM). Moreover, the MIC90 in [5] was 1.56 µg/mL (≈ 4.32 µM); in data set [6], 0.2 µg/mL (≈ 0.553 µM); in [7], 0.39 µg/mL (≈ 1.08 µM); in data set [8], 3.13 µg/mL (≈ 8.66 µM); in [9], 0.05 µg/mL (≈ 0.138 µM); in data set [10] it was 64 µg/mL (≈ 177 µM). The MIC90 was 2 µg/mL (≈ 5.53 µM) in the data set on Streptococcus pneumoniae; at most 0.06 µg/mL in the data set with Haemophilus influenzae; 8 µg/mL (≈ 22.1 µM) in data set [12]; 32 µg/mL (≈ 88.6 µM) against Staphylococcus aureus; 2 µg/mL (≈ 5.53 µM) in data set [14]; 32 µg/mL (≈ 88.6 µM) against Corynebacterium species. The MIC90 in data set [15] was 128 µg/mL (≈ 354 µM); in data set [16] it was above 128 µg/mL; with Pseudomonas aeruginosa, 4 µg/mL (≈ 11.1 µM).

Take `C[C@@H]1CN(c2c(F)c(N)c3c(=O)c(C(=O)O)cn(C4CC4)c3c2F)C[C@H](C)N1` [Sparfloxacin, sparfloxacin]: the MIC90 in data set [1] amounted to 0.78 µg/mL (≈ 1.99 µM); in data set [2] it was 0.2 µg/mL (≈ 0.51 µM); in data set [3] it was 0.024 µg/mL (≈ 0.0612 µM); in data set [4], 0.05 µg/mL (≈ 0.127 µM); in [5], 0.39 µg/mL (≈ 0.994 µM); in [6] it was 0.024 µg/mL (≈ 0.0612 µM). Besides, the MIC90 in data set [7] stood at 0.1 µg/mL (≈ 0.255 µM); in data set [8], 1.56 µg/mL (≈ 3.98 µM); in data set [9] it was 0.012 µg/mL (≈ 0.0306 µM).
